Results from patent US11123337B2, “4-methylsulfonyl-substituted piperidine urea compounds” (MYOKARDIA, INC., priority 2015, dated 2021).

Target: bovine cardiac myosin (Bos taurus, UniProt Q9BE39)
Assay: Myosin activation assay (PK/LDH-coupled ATPase, bovine cardiac myofibrils)
Type: biochemical
Settings: AC20 = concentration at which total response is increased by twenty percent
Summary of the method: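 Values are the concentrations raising the ATPase rate by 20% or 50% over DMSO, from 10-point dose responses fitted with four parameters. Rate is NADH loss at 340 nm via PK/LDH coupling, read 15 min at room temperature, in pH 6.8 PIPES with 50 μM ATP. Bovine cardiac myofibrils were held at pCa ~6 or pCa 10.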

Chain of bovine cardiac myosin (Q9BE39 whole entry): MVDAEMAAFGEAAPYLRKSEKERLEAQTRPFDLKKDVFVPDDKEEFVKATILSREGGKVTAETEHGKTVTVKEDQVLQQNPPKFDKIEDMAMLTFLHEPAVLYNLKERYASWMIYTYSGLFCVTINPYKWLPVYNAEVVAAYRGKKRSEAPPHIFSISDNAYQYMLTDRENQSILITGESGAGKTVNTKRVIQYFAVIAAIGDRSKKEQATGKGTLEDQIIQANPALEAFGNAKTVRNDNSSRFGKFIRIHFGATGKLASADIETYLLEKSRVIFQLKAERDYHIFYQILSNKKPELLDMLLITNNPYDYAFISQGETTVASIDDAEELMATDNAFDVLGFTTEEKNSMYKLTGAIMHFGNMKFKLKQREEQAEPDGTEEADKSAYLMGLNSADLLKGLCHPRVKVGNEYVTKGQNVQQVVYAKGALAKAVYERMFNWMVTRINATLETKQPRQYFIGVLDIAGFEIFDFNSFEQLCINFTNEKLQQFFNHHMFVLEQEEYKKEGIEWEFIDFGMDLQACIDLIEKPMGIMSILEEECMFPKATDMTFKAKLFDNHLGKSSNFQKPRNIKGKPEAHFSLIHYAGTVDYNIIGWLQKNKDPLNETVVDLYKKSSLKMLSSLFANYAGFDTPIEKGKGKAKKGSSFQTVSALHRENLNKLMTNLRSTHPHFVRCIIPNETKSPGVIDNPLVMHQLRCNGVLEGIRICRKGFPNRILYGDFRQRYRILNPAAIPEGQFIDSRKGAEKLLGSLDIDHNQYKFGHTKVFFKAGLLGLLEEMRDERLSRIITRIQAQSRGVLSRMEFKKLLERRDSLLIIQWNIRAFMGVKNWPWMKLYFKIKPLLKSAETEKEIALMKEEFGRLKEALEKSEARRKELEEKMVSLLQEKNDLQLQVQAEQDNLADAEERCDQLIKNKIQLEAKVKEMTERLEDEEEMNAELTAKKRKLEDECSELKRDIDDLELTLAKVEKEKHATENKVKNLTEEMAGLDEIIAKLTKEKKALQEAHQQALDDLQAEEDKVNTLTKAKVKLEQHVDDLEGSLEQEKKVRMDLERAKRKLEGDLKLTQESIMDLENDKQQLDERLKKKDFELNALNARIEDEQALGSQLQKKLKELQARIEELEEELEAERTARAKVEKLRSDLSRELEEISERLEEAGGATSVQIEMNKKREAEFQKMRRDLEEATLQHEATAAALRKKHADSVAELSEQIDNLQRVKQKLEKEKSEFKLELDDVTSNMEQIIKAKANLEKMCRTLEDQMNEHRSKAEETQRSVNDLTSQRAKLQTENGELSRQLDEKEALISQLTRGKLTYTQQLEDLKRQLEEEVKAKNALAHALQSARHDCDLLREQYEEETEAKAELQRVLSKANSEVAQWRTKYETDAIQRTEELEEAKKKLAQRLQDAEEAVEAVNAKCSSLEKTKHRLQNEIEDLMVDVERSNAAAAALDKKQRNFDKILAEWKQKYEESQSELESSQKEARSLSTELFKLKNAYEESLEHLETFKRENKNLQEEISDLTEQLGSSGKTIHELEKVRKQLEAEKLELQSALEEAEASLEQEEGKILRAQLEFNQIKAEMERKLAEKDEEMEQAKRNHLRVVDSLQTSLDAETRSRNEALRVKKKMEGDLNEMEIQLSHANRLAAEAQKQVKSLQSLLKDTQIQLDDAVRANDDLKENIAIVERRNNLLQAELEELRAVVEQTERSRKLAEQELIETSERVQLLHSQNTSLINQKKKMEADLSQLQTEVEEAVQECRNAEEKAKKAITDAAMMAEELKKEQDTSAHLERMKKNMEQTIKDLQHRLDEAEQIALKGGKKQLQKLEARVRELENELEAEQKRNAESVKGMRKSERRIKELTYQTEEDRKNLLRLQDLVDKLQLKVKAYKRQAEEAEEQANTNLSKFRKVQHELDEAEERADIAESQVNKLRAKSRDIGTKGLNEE
Chain of bovine cardiac myosin (P85100 whole entry partner): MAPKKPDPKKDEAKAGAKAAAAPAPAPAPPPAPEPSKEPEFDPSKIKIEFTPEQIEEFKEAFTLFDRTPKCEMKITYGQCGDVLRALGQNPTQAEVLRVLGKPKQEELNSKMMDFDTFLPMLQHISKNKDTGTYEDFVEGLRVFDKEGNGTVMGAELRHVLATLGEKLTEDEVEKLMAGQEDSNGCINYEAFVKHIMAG
Chain of bovine cardiac myosin (Q3SZE5 whole entry partner): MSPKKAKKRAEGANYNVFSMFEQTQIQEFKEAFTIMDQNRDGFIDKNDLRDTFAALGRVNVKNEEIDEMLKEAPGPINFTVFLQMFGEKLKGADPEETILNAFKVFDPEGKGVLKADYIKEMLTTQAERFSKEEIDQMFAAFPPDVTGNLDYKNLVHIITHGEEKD

| Compound | Myosin Activation (AC20) |
| --- | --- |
| Cn1nc(C(F)(F)F)cc1S(=O)(=O)C(C)(F)C1CCN(C(=O)Nc2ccnc(F)c2)CC1 (stereo not shown) [Compound 251, 4-(1-fluoro-1-((1-methyl-3-(trifluoromethyl)-1H-pyrazol-5-yl)sulfonyl)ethyl)-N-(2-fluoropyridin-4-yl)piperidine-1-carboxamide] | ++ (++ represents myosin activation value AC20 from 2 μM-5 μM) |
| Cn1nc(C(F)(F)F)cc1S(=O)(=O)C(C)(F)C1CCN(C(=O)Nc2ccc(F)nc2)CC1 (stereo not shown) [Compound 252, 4-(1-fluoro-1-((1-methyl-3-(trifluoromethyl)-1H-pyrazol-5-yl)sulfonyl)ethyl)-N-(6-fluoropyridin-3-yl)piperidine-1-carboxamide] | ++ (++ represents myosin activation value AC20 from 2 μM-5 μM) |
| Cn1cc(S(=O)(=O)[C@](C)(F)C2CCN(C(=O)Nc3ccc(F)nc3)CC2)c(C(F)F)n1 [Compound 257, (S)-4-(1-((3-(difluoromethyl)-1-methyl-1H-pyrazol-4-yl)sulfonyl)-1-fluoroethyl)-N-(6-fluoropyridin-3-yl)piperidine-1-carboxamide] | + (+ represents myosin activation value AC20 > 5 μM) |
| Cc1ccc(NC(=O)N2CCC([C@@](C)(F)S(=O)(=O)c3cn(C)nc3C(F)F)CC2)cn1 [Compound 258, (S)-4-(1-((3-(difluoromethyl)-1-methyl-1H-pyrazol-4-yl)sulfonyl)-1-fluoroethyl)-N-(6-methylpyridin-3-yl)piperidine-1-carboxamide] | + (+ represents myosin activation value AC20 > 5 μM) |
| Cn1cc(S(=O)(=O)[C@@](C)(F)C2CCN(C(=O)Nc3ccc(F)nc3)CC2)c(C(F)F)n1 [Compound 259, (R)-4-(1-((3-(difluoromethyl)-1-methyl-1H-pyrazol-4-yl)sulfonyl)-1-fluoroethyl)-N-(6-fluoropyridin-3-yl)piperidine-1-carboxamide] | +++ (+++ represents myosin activation value AC20 < 2 μM) |
| Cc1ccc(NC(=O)N2CCC([C@](C)(F)S(=O)(=O)c3cn(C)nc3C(F)F)CC2)cn1 [Compound 260, (R)-4-(1-((3-(difluoromethyl)-1-methyl-1H-pyrazol-4-yl)sulfonyl)-1-fluoroethyl)-N-(6-methylpyridin-3-yl)piperidine-1-carboxamide] | ++ (++ represents myosin activation value AC20 from 2 μM-5 μM) |
| Cn1cc(S(=O)(=O)[C@@](C)(F)C2CCN(C(=O)Nc3ccc(C(F)(F)F)nc3)CC2)c(C(F)F)n1 [Compound 261, (R)-4-(1-((3-(difluoromethyl)-1-methyl-1H-pyrazol-4-yl)sulfonyl)-1-fluoroethyl)-N-(6-(trifluoromethyl)pyridin-3-yl)piperidine-1-carboxamide] | + (+ represents myosin activation value AC20 > 5 μM) |
| CC(F)(C1CCN(C(=O)Nc2ccnnc2)CC1)S(=O)(=O)c1ccc(C(F)(F)F)nc1 (stereo not shown) [Compound 262, 4-(1-fluoro-1-((6-(trifluoromethyl)pyridin-3-yl)sulfonyl)ethyl)-N-(pyridazin-4-yl)piperidine-1-carboxamide] | +++ (+++ represents myosin activation value AC20 < 2 μM) |
| CC(F)(C1CCN(C(=O)Nc2ccnnc2)CC1)S(=O)(=O)c1ccccc1Cl (stereo not shown) [Compound 263, 4-(1-((2-chlorophenyl)sulfonyl)-1-fluoroethyl)-N-(pyridazin-4-yl)piperidine-1-carboxamide] | +++ (+++ represents myosin activation value AC20 < 2 μM) |
| CC(F)(C1CCN(C(=O)Nc2ccnnc2)CC1)S(=O)(=O)c1cccc(Cl)c1 (stereo not shown) [Compound 264, 4-(1-((3-chlorophenyl)sulfonyl)-1-fluoroethyl)-N-(pyridazin-4-yl)piperidine-1-carboxamide] | +++ (+++ represents myosin activation value AC20 < 2 μM) |
| CC(F)(C1CCN(C(=O)Nc2ccnnc2)CC1)S(=O)(=O)c1cccc(C#N)c1 (stereo not shown) [Compound 265, 4-(1-((3-cyanophenyl)sulfonyl)-1-fluoroethyl)-N-(pyridazin-4-yl)piperidine-1-carboxamide] | +++ (+++ represents myosin activation value AC20 < 2 μM) |
| CC(F)(C1CCN(C(=O)Nc2ccnnc2)CC1)S(=O)(=O)c1ccc(C(F)(F)F)cc1 (stereo not shown) [Compound 266, 4-(1-fluoro-1-((4-(trifluoromethyl)phenyl)sulfonyl)ethyl)-N-(pyridazin-4-yl)piperidine-1-carboxamide] | ++ (++ represents myosin activation value AC20 from 2 μM-5 μM) |
| Cn1nccc1S(=O)(=O)C(C)(F)C1CCN(C(=O)Nc2cnns2)CC1 (stereo not shown) [Compound 267, 4-(1-fluoro-1-((1-methyl-1H-pyrazol-5-yl)sulfonyl)ethyl)-N-(1,2,3-thiadiazol-5-yl)piperidine-1-carboxamide] | +++ (+++ represents myosin activation value AC20 < 2 μM) |
| CC(F)(C1CCN(C(=O)Nc2cnns2)CC1)S(=O)(=O)c1ccc(C(F)(F)F)cc1 (stereo not shown) [Compound 268, 4-(1-fluoro-1-((4-(trifluoromethyl)phenyl)sulfonyl)ethyl)-N-(1,2,3-thiadiazol-5-yl)piperidine-1-carboxamide] | +++ (+++ represents myosin activation value AC20 < 2 μM) |
| CCn1nccc1S(=O)(=O)C(C)(F)C1CCN(C(=O)Nc2ccnnc2)CC1 (stereo not shown) [Compound 269, 4-(1-((1-ethyl-1H-pyrazol-5-yl)sulfonyl)-1-fluoroethyl)-N-(pyridazin-4-yl)piperidine-1-carboxamide] | ++ (++ represents myosin activation value AC20 from 2 μM-5 μM) |
| CC(F)(C1CCN(C(=O)Nc2ccnnc2)CC1)S(=O)(=O)c1ccc(C#N)cc1 (stereo not shown) [Compound 270, 4-(1-((4-cyanophenyl)sulfonyl)-1-fluoroethyl)-N-(pyridazin-4-yl)piperidine-1-carboxamide] | +++ (+++ represents myosin activation value AC20 < 2 μM) |
| Cn1nccc1S(=O)(=O)C(C)(F)C1CCN(C(=O)Nc2ccnnc2)CC1 (stereo not shown) [Compound 271, 4-(1-fluoro-1-((1-methyl-1H-pyrazol-5-yl)sulfonyl)ethyl)-N-(pyridazin-4-yl)piperidine-1-carboxamide] | ++ (++ represents myosin activation value AC20 from 2 μM-5 μM) |
| Cn1cnc(S(=O)(=O)C(C)(F)C2CCN(C(=O)Nc3ccnnc3)CC2)c1 (stereo not shown) [Compound 272, 4-(1-fluoro-1-((1-methyl-1H-imidazol-4-yl)sulfonyl)ethyl)-N-(pyridazin-4-yl)piperidine-1-carboxamide] | + (+ represents myosin activation value AC20 > 5 μM) |
| COc1ccccc1S(=O)(=O)C(C)(F)C1CCN(C(=O)Nc2ccnnc2)CC1 (stereo not shown) [Compound 273, 4-(1-fluoro-1-((2-methoxyphenyl)sulfonyl)ethyl)-N-(pyridazin-4-yl)piperidine-1-carboxamide] | ++ (++ represents myosin activation value AC20 from 2 μM-5 μM) |
| CC(F)(C1CCN(C(=O)Nc2cnns2)CC1)S(=O)(=O)c1ccc(C#N)cc1 (stereo not shown) [Compound 274, 4-(1-((4-cyanophenyl)sulfonyl)-1-fluoroethyl)-N-(1,2,3-thiadiazol-5-yl)piperidine-1-carboxamide] | +++ (+++ represents myosin activation value AC20 < 2 μM) |
| CC(F)(C1CCN(C(=O)Nc2ccnnc2)CC1)S(=O)(=O)c1cc(F)cc(F)c1 (stereo not shown) [Compound 275, 4-(1-((3,5-difluorophenyl)sulfonyl)-1-fluoroethyl)-N-(pyridazin-4-yl)piperidine-1-carboxamide] | +++ (+++ represents myosin activation value AC20 < 2 μM) |
| Cn1cc(S(=O)(=O)C(C)(F)C2CCN(C(=O)Nc3ccnnc3)CC2)c(C(F)F)n1 (stereo not shown) [Compound 276, 4-(1-((3-(difluoromethyl)-1-methyl-1H-pyrazol-4-yl)sulfonyl)-1-fluoroethyl)-N-(pyridazin-4-yl)piperidine-1-carboxamide] | +++ (+++ represents myosin activation value AC20 < 2 μM) |
| Cn1nc(C(F)(F)F)cc1S(=O)(=O)C(C)(F)C1CCN(C(=O)Nc2ccnnc2)CC1 (stereo not shown) [Compound 277, 4-(1-fluoro-1-((1-methyl-3-(trifluoromethyl)-1H-pyrazol-5-yl)sulfonyl)ethyl)-N-(pyridazin-4-yl)piperidine-1-carboxamide] | +++ (+++ represents myosin activation value AC20 < 2 μM) |
| C[C@](F)(C1CCN(C(=O)Nc2ccnnc2)CC1)S(=O)(=O)c1cccc(F)c1 [Compound 278, (R)-4-(1-fluoro-1-((3-fluorophenyl)sulfonyl)ethyl)-N-(pyridazin-4-yl)piperidine-1-carboxamide] | +++ (+++ represents myosin activation value AC20 < 2 μM) |
| C[C@@](F)(C1CCN(C(=O)Nc2ccnnc2)CC1)S(=O)(=O)c1cccc(F)c1 [Compound 279, (S)-4-(1-fluoro-1-((3-fluorophenyl)sulfonyl)ethyl)-N-(pyridazin-4-yl)piperidine-1-carboxamide] | + (+ represents myosin activation value AC20 > 5 μM) |
| Cn1nccc1S(=O)(=O)C(C)(F)C1CCN(C(=O)Nc2ccon2)CC1 (stereo not shown) [Compound 280, 4-(1-fluoro-1-((1-methyl-1H-pyrazol-5-yl)sulfonyl)ethyl)-N-(isoxazol-3-yl)piperidine-1-carboxamide] | + (+ represents myosin activation value AC20 > 5 μM) |
| Cn1cc(S(=O)(=O)C(C)(F)C2CCN(C(=O)Nc3ccnnc3)CC2)c(C(F)(F)F)n1 (stereo not shown) [Compound 281, 4-(1-fluoro-1-((1-methyl-3-(trifluoromethyl)-1H-pyrazol-4-yl)sulfonyl)ethyl)-N-(pyridazin-4-yl)piperidine-1-carboxamide] | ++ (++ represents myosin activation value AC20 from 2 μM-5 μM) |
| CC(F)(C1CCN(C(=O)Nc2ccon2)CC1)S(=O)(=O)c1cccc(C#N)c1 (stereo not shown) [Compound 282, 4-(1-((3-cyanophenyl)sulfonyl)-1-fluoroethyl)-N-(isoxazol-3-yl)piperidine-1-carboxamide] | ++ (++ represents myosin activation value AC20 from 2 μM-5 μM) |
